From ChEMBL document CHEMBL3046076, “3D-QSAR CoMFA and CoMSIA studies on a set of diverse 1a-adrenergic receptor antagonists” (Med Chem Res, 2011)

target: T1, Alpha-1A adrenergic receptor (Homo sapiens, UniProt P35348); assay: Binding affinity to adrenergic alpha1A receptor (unknown origin); settings: read-out: Ki
T1 sequence (P35348 whole entry): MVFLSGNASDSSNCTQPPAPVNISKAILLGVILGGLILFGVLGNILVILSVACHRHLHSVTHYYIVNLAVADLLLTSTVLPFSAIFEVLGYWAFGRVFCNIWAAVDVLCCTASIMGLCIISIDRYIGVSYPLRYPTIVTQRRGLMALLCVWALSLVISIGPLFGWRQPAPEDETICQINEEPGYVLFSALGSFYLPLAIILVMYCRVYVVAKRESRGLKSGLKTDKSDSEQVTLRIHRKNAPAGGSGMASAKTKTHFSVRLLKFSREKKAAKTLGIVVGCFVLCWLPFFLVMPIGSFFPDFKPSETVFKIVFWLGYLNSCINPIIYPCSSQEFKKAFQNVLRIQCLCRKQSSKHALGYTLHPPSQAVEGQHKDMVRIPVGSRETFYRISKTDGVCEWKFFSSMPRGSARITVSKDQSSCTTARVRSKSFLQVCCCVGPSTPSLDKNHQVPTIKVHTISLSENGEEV

In order of rising Ki:
1. COc1cccc(OC)c1OCCN[C@H]1C[C@@H](c2ccccc2)c2ccccc2O1  0.05 nM
2. COc1cccc(OC)c1OCCN[C@H]1C[C@@H](c2ccccc2)c2ccccc2S1  0.08 nM
3. O=C1CC2(CCCC2)CC(=O)N1CCCCN1CCN(c2cc(Cl)ccc2Cl)CC1  1.45 nM
4. COc1cccc(OC)c1OCCN[C@H]1C[C@H](c2ccccc2)c2ccccc2S1  2.34 nM
5. CC(C)Oc1ccccc1N1CCN(CCN2C(=O)CC3(CCCC3)CC2=O)CC1  2.83 nM
6. COc1ccccc1N1CCN(CC(O)COc2cccc3ccccc23)CC1 (stereo unspecified) [NAFTOPIDIL]  5.88 nM
7. COc1ccccc1N1CCN(CC2CO[C@H](c3cccc4ccccc34)O2)CC1 (stereo partly specified)  7.94 nM
8. COc1cccc(OC)c1OCCNC[C@@H]1C(=O)c2ccccc2C[C@H]1c1ccccc1  8.7 nM
9. COc1ccccc1N1CCN(CCN2C=CC3(CCCC3)CC2=O)CC1  23.4 nM
10. C[N+](C)(CCOc1ccccc1)CC1COC(c2ccccc2)(c2ccccc2)O1 (stereo unspecified)  24.5 nM
11. COc1ccccc1N1CCN(CC2CO[C@H](c3ccccc3)O2)CC1 (stereo partly specified)  28.8 nM
12. CN(CCOc1ccccc1)CC1COC(c2ccccc2)(c2ccccc2)O1 (stereo unspecified)  33.9 nM
13. COc1ccccc1N1CCN(CC2CO[C@@H](c3cccc4ccccc34)O2)CC1 (stereo partly specified)  36.3 nM
14. O=C1CC2(C=CN1CCN1CCN(c3ccccc3Cl)CC1)CCCC2  43.1 nM
15. O=C1CC2(CCCC2)C(=O)N1CCN1CCN(c2cc(Cl)ccc2Cl)CC1  54.6 nM
16. O=C1CC2(CCCC2)CCN1CCN1CCN(c2ccccc2Cl)CC1  70 nM
17. COc1ccccc1OCCNC1COC(c2ccccc2)(c2ccccc2)CO1 (stereo unspecified)  74.1 nM
18. O=C1CC2(CCCC2)CC(=O)N1CCN1CCN(c2cc(F)ccc2Cl)CC1  86.2 nM
19. COc1ccccc1N1CCN(CC2COC3(CCCCC3)O2)CC1 (stereo unspecified)  91.2 nM
20. Cc1ccc(C)c(N2CCN(CCN3C(=O)CC4(CCCC4)CC3=O)CC2)c1  95.4 nM
21. COc1cc2nc3c(c(N)c2cc1OC)CCC(CNC(=O)c1ccoc1)C3 (stereo unspecified)  95.5 nM
22. Cc1ccc(Cl)c(N2CCN(CCN3C(=O)CC4(CCCC4)CC3=O)CC2)c1  100 nM
23. CC(CN1CCN(c2cc(Cl)ccc2Cl)CC1)N1C(=O)CC2(CCCC2)CC1=O (stereo unspecified)  149 nM
24. COc1cc2nc3c(c(N)c2cc1OC)CC(CNC(=O)c1ccoc1)C3 (stereo unspecified)  158 nM
25. c1ccc(OCCNC2COCC(c3ccccc3)(c3ccccc3)O2)cc1 (stereo unspecified)  170 nM
26. N#Cc1ccccc1N1CCN(CCN2C(=O)CC3(CCCC3)CC2=O)CC1  171 nM
27. c1ccc(OCCNC2COC(c3ccccc3)(c3ccccc3)CO2)cc1 (stereo unspecified)  224 nM
28. O=C1CC2(CCCC2)CC(=O)N1CCN1CCCN(c2ccccc2Cl)CC1  236 nM
29. COc1cccc(OC)c1OCCNC1COCC(c2ccccc2)(c2ccccc2)O1 (stereo unspecified)  339 nM
30. N#Cc1ccc(Cl)cc1N1CCN(CCN2C(=O)CC3(CCCC3)CC2=O)CC1  403 nM
31. c1ccc(OCCN[C@H]2COC[C@H](c3ccccc3)O2)cc1  407 nM
32. COc1cccc(OC)c1OCCN[C@H]1COC[C@H](c2ccccc2)O1  468 nM
33. COc1cccc(OC)c1OCCN[C@H]1CO[C@H](c2ccccc2)CO1  513 nM
34. c1ccc(OCCN[C@H]2CO[C@H](c3ccccc3)CO2)cc1  537 nM
35. COc1cc2nc3c(c(N)c2cc1OC)CCC(CNCOc1c(OC)cccc1OC)C3 (stereo unspecified)  1700 nM
36. O=C1CC2(CCCC2)CC(=O)N1CCN1CCN(c2ccccc2)CC1  2680 nM

same assay, conditions: read-out: pKi (converted)

In order of rising Ki:
1. COc1cccc(OC)c1OCCN[C@H]1C[C@@H](c2ccccc2)c2ccccc2S1  0.0891 nM
2. O=C1CC2(C=CN1CCN1CCN(c3ccccc3Cl)CC1)CCCC2  43.7 nM
3. CC(CN1CCN(c2cc(Cl)ccc2Cl)CC1)N1C(=O)CC2(CCCC2)CC1=O (stereo unspecified)  151 nM
4. N#Cc1ccc(Cl)cc1N1CCN(CCN2C(=O)CC3(CCCC3)CC2=O)CC1  407 nM
5. COc1cc2nc3c(c(N)c2cc1OC)CCC(CNC(=O)c1ccoc1)C3 (stereo unspecified)  2570 nM
